How the values were obtained:
[1] = tested on: calcium response in purified WT mouse islets; assay: Calcium assay, WT mouse islets; type: cell-based; conditions: Cal-520 AM; 100 nM; n = 4
Experimental: Nondiabetic mice of both sexes were used for islet isolation. Briefly, pancreata were infused via the common bile duct with RPMI-1640 medium containing 1 mg/mL collagenase from Clostridium histolyticum (Nordmark Biochemicals), dissected, and incubated in a water bath at 37 °C for 10 minutes. Islets were subsequently washed and purified using a Histopaque gradient (Histopaque-1119, 11191, Sigma-Aldrich, and Histopaque-1083, 10831, Sigma-Aldrich). Isolated islets were allowed to recover overnight at 37 °C in 5% CO2 in RPMI-1640 supplemented with 10% FBS and 1% penicillin/streptomycin. […]
Imaging of INS-1 832/3 cells or whole-islet Ca^2+ dynamics was performed as follows: cells or Matrigel-encased islets from individual animals were loaded with the Ca^2+ responsive dye Cal-520 AM (AAT Bioquest), pre-incubated for 1 hour in KRBH G6, and imaged in MatTek glass bottom dishes every 6 second at 488 nm using a Nikon Eclipse Ti microscope with an ORCA-Flash 4.0 camera (Hamamatsu) and Metamorph software (Molecular Devices) while maintained at 37 °C on a heated stage. Raw fluorescence intensity traces from cell-occupied areas or islet ROIs were extracted using Fiji. Responses were plotted relative to the average fluorescence intensity during the 6 mM glucose baseline period, before agonist addition. […]

[2] = tested on: SNAP-GIPR; assay: Nb37 bystander NanoBiT, plasma membrane (CAAX), GIPR; type: cell-based, human; conditions: 30-minute AUC, n = 4
From the text: (§1) The Nb37 assay constructs were kindly provided by Prof. Asuka Inoue, Tohoku University, Japan. Nb37 (gene synthesized by GenScript with codon optimization) was C-terminally fused to SmBiT with a 15 amino acid flexible linker ([…]), and the resulting construct referred to as Nb37-SmBiT. The C-terminal KRAS CAAX motif ([…]) was N-terminally fused with LgBiT (LgBiT-CAAX). The Endofin FYVE domain (amino acid region Gln739-Lys806) was C-terminally fused with LgBiT (Endofin-LgBiT). Gαs (human, short isoform), Gβ1 (human), Gγ2 (human), and RIC8B (human, isoform 2) plasmids were inserted into pcDNA3.1 or pCAGGS expression plasmid vectors. INS-1 832/3 GLP-1R KO or GIPR KO cells were seeded in 6-well plates and co-transfected with 0.1 μg SNAP-GLP-1R or SNAP-GIPR, 0.5 μg Gαs, Gβ1, and Gγ2, 0.1 μg RIC8B, 0.1 μg CAAX-LgBiT or 0.5 μg Endofin-LgBiT with 0.1 μg or 0.5 μg Nb37-SmBiT, respectively, with 0.8 µg pcDNA3.1 added to the former to equalize DNA content.
(§2) All NanoBiT and NanoBRET readings were obtained in a Flexstation 3 plate reader. […] Readings were normalized to well baseline and then to average vehicle-induced signal to establish the agonist-induced effect. AUCs from response curves were calculated for each agonist concentration and fitted to four-parameter curves using Prism 9 (GraphPad). […]

[3] = tested on: SNAP-GIPR; assay: Nb37 bystander NanoBiT, endosome (Endofin), GIPR; type: cell-based, human; conditions: Endofin-LgBiT, n = 4
From the text: as §1, §2

[4] = tested on: SNAP-tagged human GIPR; assay: DERET internalization assay, INS-1 832/3 SNAP-GIPR cells; type: cell-based; conditions: non-cognate agonist GLP-1, or both agonists combined
Experimental: The diffusion-enhanced resonance energy transfer (DERET) assay was performed as previously described ([21]). The INS-1 832/3 SNAP-GLP-1R or SNAP-GIPR cells were labeled in suspension with Lumi4-Tb (40 nM) for 30 minutes in complete media. After washing, cells were resuspended in HBSS containing 24 µM fluorescein and dispensed into 96-well white plates. A baseline read was serially recorded over 5 minutes using a Flexstation 3 instrument at 37 °C in time-resolved fluorescence resonance energy transfer (TR-FRET) mode using the following settings: λex 340 nm, λem 520 and 620 nm, auto-cutoff, delay 400 µs, integration time 1500 µs. Ligands were then added, after which signal was repeatedly recorded for 30 minutes. Fluorescence signals were expressed ratiometrically after first subtracting signal from wells containing 24 µM fluorescein but no cells. Internalization was quantified as area under the curve (AUC) relative to individual well baseline.
Note that surface expression levels of SNAP-GLP-1R and SNAP-GIPR were similar within these 2 cell models (Supplemental Fig. 1A) ([32]).

[5] = tested on: SNAP-GLP-1R; assay: Nb37 bystander NanoBiT, plasma membrane (CAAX), GLP-1R; type: cell-based, human; conditions: 30-minute AUC, n = 4
From the text: as §1, §2

| Substance | Calcium influx, GIP vs GLP-1, primary islets [1] | Recruitment of Nb37 to active GIPRs vs GLP-1Rs within the plasma membrane [2] | GIPR endosomal activity, Emax response vs GLP-1R [3] | GIPR potency for endosomal signaling vs GLP-1R [3] | GIPR internalization [4] | Recruitment of Nb37 to active GLP-1Rs vs GIPRs within the plasma membrane [5] |
| --- | --- | --- | --- | --- | --- | --- |
| GIP(1-42) | significant increase | no significant differences | profoundly reduced | increased potency | – | – |
| GLP-1(7-36)NH2 | – | – | – | – | negligible | no significant differences |

From article PMC10016038, “Enhanced Endosomal Signaling and Desensitization of GLP-1R vs GIPR in Pancreatic Beta Cells” (Endocrinology, 2023)
